In brackets after ≈: the same amount, converted by molar mass. Read-outs that look alike come from different tables or passages of the source.
Experiments:
Test in all cases: MIC, microdilution broth method (NCCLS)
Type in all cases: cell-based
H. influenzae ATCC49247 = conditions: E: H. influenzae ATCC49247, 35° C., 16-20 hours
Summary of the method: (§1)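 NCCLS M7-A4 broth microdilution using two-fold serial drug dilutions in cation-adjusted Mueller-Hinton broth, with inoculum ~5×10^4 CFU/well. Trays were incubated at 35 °C for 16–20 h, and growth was compared against compound-free controls.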

E. faecalis ATCC29212 = conditions: C: E. faecalis ATCC29212, 35° C., 16-20 hours
Summary of the method: as §1

S. aureus ATCC29213 = conditions: B: S. aureus ATCC29213, 35° C., 16-20 hours
Summary of the method: as §1

E. coli OC2605 = conditions: A: E. coli OC2605, 35° C., 16-20 hours
Summary of the method: as §1

S. pneumoniae ATCC49619 = conditions: D: S. pneumoniae ATCC49619, 35° C., 16-20 hours
Summary of the method: as §1

[1] = Haemophilus influenzae, read-out: MIC
[2] = Enterococcus faecalis, read-out: MIC
[3] = Staphylococcus aureus, read-out: MIC
[4] = Escherichia coli, read-out: MIC
[5] = Streptococcus pneumoniae, read-out: MIC

| SMILES | MIC (H. influenzae ATCC49247; [1]) [µg/mL] | MIC (E. faecalis ATCC29212; [2]) [µg/mL] | MIC (S. aureus ATCC29213; [3]) [µg/mL] | MIC (E. coli OC2605; [4]) [µg/mL] | MIC (S. pneumoniae ATCC49619; [5]) [µg/mL] | MIC (H. influenzae ATCC49247) [µg/mL] | MIC (E. faecalis ATCC29212) [µg/mL] | MIC (S. aureus ATCC29213) [µg/mL] | MIC (E. coli OC2605) [µg/mL] | MIC (S. pneumoniae ATCC49619) |
| --- | --- | --- | --- | --- | --- | --- | --- | --- | --- | --- |
| CC[C@H]1OC(=O)[C@H](C)C(=O)[C@H](C)[C@@H](O[C@@H]2O[C@H](C)C[C@H](N(C)C)[C@H]2O)[C@](C)(OC(=O)NC/C=C/c2ccc(-c3ccn(C)n3)cc2)C[C@@H](C)C(=O)[C@H](C)[C@H]2NC(=O)O[C@@]21C [Compound 43, Carbamic acid, [(2E)-3-[4-(1-methyl-1H-pyrazol-3-yl)phenyl]-2-propenyl]-, (3aS,4R,7R,9R,10R,11R,13R,15R,15aR)-4-ethyltetradecahydro-3a,7,9,11,13,15-hexamethyl-2,6,8,14-tetraoxo-10-[[3,4,6-trideoxy-3-(dimethylamino)-β-D-xylo-hexopyranosyl]oxy]-2H-oxacyclotetradecino[4,3-d]oxazol-11-yl ester] | 2 (≈ 2.39 µM) | 0.12 (≈ 0.143 µM) | 0.25 (≈ 0.298 µM) | > 16 | 0.03 (≈ 0.0358 µM) |  |  |  |  |  |
| CCC1OC(=O)C(C)(F)C(=O)C(C)C(OC2OC(C)CC(N(C)C)C2O)C(C)(OC(=O)NCC=Cc2ccc3ncccc3c2)CC(C)C(=O)C(C)C2NC(=O)OC12C (stereo not shown) [Compound 90] |  |  |  |  |  | 4 (≈ 4.84 µM) | 0.06 (≈ 0.0726 µM) | 0.25 (≈ 0.302 µM) | 8 (≈ 9.67 µM) | 0.03 µg/mL (≈ 0.0363 µM) |
| CCC1OC(=O)C(C)(F)C(=O)C(C)C(OC2OC(C)CC(N(C)C)C2O)C(C)(OC(=O)NCC=Cc2ccc(-c3ncccn3)cc2)CC(C)C(=O)C(C)C2NC(=O)OC12C (stereo not shown) [Compound 89] |  |  |  |  |  | 8 (≈ 9.37 µM) | 0.25 (≈ 0.293 µM) | 0.5 (≈ 0.585 µM) | 16 (≈ 18.7 µM) | 0.06 µg/mL (≈ 0.0703 µM) |
| CC[C@H]1OC(=O)[C@H](C)C(=O)[C@H](C)[C@@H](O[C@@H]2O[C@H](C)C[C@H](N(C)C)[C@H]2O)[C@](C)(OC(=O)NC/C=C/c2ccc(-c3cnccn3)cc2)C[C@@H](C)C(=O)[C@H](C)[C@H]2NC(=O)O[C@@]21C [Compound 77, Carbamic acid, [(2E)-3-(4-pyrazinylphenyl)-2-propenyl]-, (3aS,4R,7R,9R,10R,11R,13R,15R,15aR)-4-ethyltetradecahydro-3a,7,9,11,13,15-hexamethyl-2,6,8,14-tetraoxo-10-[[3,4,6-trideoxy-3-(dimethylamino)-β-D-xylo-hexopyranosyl]oxy]-2H-oxacyclotetradecino[4,3-d]oxazol-11-yl ester] | 4 (≈ 4.78 µM) | 0.12 (≈ 0.144 µM) | 0.12 (≈ 0.144 µM) | 16 (≈ 19.1 µM) | 0.03 (≈ 0.0359 µM) |  |  |  |  |  |
| CC[C@H]1OC(=O)[C@H](C)C(=O)[C@H](C)[C@@H](O[C@@H]2O[C@H](C)C[C@H](N(C)C)[C@H]2O)[C@](C)(OC(=O)NCCN(C)Cc2ccc(-c3ncccn3)cc2)C[C@@H](C)C(=O)[C@H](C)[C@H]2NC(=O)O[C@@]21C [Compound 117] |  |  |  |  |  | >16 | 0.5 (≈ 0.577 µM) | 2 (≈ 2.31 µM) | >16 | 0.06 µg/mL (≈ 0.0692 µM) |
| CC[C@H]1OC(=O)[C@H](C)C(=O)[C@H](C)[C@@H](O[C@@H]2O[C@H](C)C[C@H](N(C)C)[C@H]2O)[C@](C)(OC(=O)NC/C=C/c2ccc(-c3ccnn3C)cc2)C[C@@H](C)C(=O)[C@H](C)[C@H]2NC(=O)O[C@@]21C [Compound 44] |  |  |  |  |  | 2 (≈ 2.39 µM) | 0.12 (≈ 0.143 µM) | 0.25 (≈ 0.298 µM) | >16 | 0.12 µg/mL (≈ 0.143 µM) |
| CCC1OC(=O)C(C)(F)C(=O)C(C)C(OC2OC(C)CC(N(C)C)C2O)C(C)(OC(=O)NCC=Cc2cnc3ccccc3c2)CC(C)C(=NO)C(C)C2NC(=O)OC12C (stereo not shown) [Compound 127] |  |  |  |  |  | 2 (≈ 2.38 µM) | 0.12 (≈ 0.143 µM) | 0.25 (≈ 0.297 µM) | 8 (≈ 9.5 µM) | 0.03 µg/mL (≈ 0.0356 µM) |
| CC[C@H]1OC(=O)[C@H](C)C(=O)[C@H](C)[C@@H](O[C@@H]2O[C@H](C)C[C@H](N(C)C)[C@H]2O)[C@](C)(OC(=O)NC/C=C/c2cncc3ccccc23)C[C@@H](C)C(=O)[C@H](C)[C@H]2NC(=O)O[C@@]21C [Compound 52] |  |  |  |  |  | 2 (≈ 2.47 µM) | 0.12 (≈ 0.148 µM) | 0.25 (≈ 0.309 µM) | 8 (≈ 9.89 µM) | 0.03 µg/mL (≈ 0.0371 µM) |
| CC[C@H]1OC(=O)[C@H](C)C(=O)[C@H](C)[C@@H](O[C@@H]2O[C@H](C)C[C@H](N(C)C)[C@H]2O)[C@](C)(OC(=O)NCCCc2ccccc2)C[C@@H](C)C(=O)[C@H](C)[C@H]2NC(=O)O[C@@]21C [Compound 2] |  |  |  |  |  | 2 (≈ 2.63 µM) | 0.25 (≈ 0.329 µM) | 1 (≈ 1.32 µM) | 16 (≈ 21.1 µM) | 0.06 µg/mL (≈ 0.079 µM) |
| CC[C@H]1OC(=O)[C@H](C)C(=O)[C@H](C)[C@@H](O[C@@H]2O[C@H](C)C[C@H](N(C)C)[C@H]2O)[C@](C)(OC(=O)NCCNC(=O)c2cccnc2)C[C@@H](C)C(=O)[C@H](C)[C@H]2NC(=O)O[C@@]21C [Compound 112] |  |  |  |  |  | 16 (≈ 20.3 µM) | 2 (≈ 2.53 µM) | 16 (≈ 20.3 µM) | >16 | 0.5 µg/mL (≈ 0.633 µM) |
| CC[C@H]1OC(=O)[C@H](C)C(=O)[C@H](C)[C@@H](O[C@@H]2O[C@H](C)C[C@H](N(C)C)[C@H]2O)[C@](C)(OC(=O)N(C)C/C=C/c2ccc(-c3ncccn3)cc2)C[C@@H](C)C(=O)[C@H](C)[C@H]2NC(=O)O[C@@]21C [Compound 85] |  |  |  |  |  | >16 | 0.25 (≈ 0.294 µM) | 1 (≈ 1.18 µM) | >16 | 0.12 µg/mL (≈ 0.141 µM) |
| CC[C@H]1OC(=O)[C@H](C)C(=O)[C@H](C)[C@@H](O[C@@H]2O[C@H](C)C[C@H](N(C)C)[C@H]2O)[C@](C)(OC(=O)NC/C=C/c2ccc(Oc3ncccn3)cc2)C[C@@H](C)C(=O)[C@H](C)[C@H]2NC(=O)O[C@@]21C [Compound 86] |  |  |  |  |  | 8 (≈ 9.39 µM) | 0.12 (≈ 0.141 µM) | 0.5 (≈ 0.587 µM) | >16 | 0.06 µg/mL (≈ 0.0704 µM) |
| CC[C@H]1OC(=O)[C@H](C)C(=O)[C@H](C)[C@@H](O[C@@H]2O[C@H](C)C[C@H](N(C)C)[C@H]2O)[C@](C)(OC(=O)NC/C=C/c2ccc(-n3cccn3)nc2)C[C@@H](C)C(=O)[C@H](C)[C@H]2NC(=O)O[C@@]21C [Compound 49] |  |  |  |  |  | 2 (≈ 2.42 µM) | 0.06 (≈ 0.0727 µM) | 0.25 (≈ 0.303 µM) | 16 (≈ 19.4 µM) | 0.06 µg/mL (≈ 0.0727 µM) |
| CC[C@H]1OC(=O)[C@H](C)C(=O)[C@H](C)[C@@H](O[C@@H]2O[C@H](C)C[C@H](N(C)C)[C@H]2O)[C@](C)(OC(=O)NCc2cn(-c3ncccn3)cn2)C[C@@H](C)C(=O)[C@H](C)[C@H]2NC(=O)O[C@@]21C [Compound 93] |  |  |  |  |  | 1 (≈ 1.25 µM) | 0.06 (≈ 0.075 µM) | 0.5 (≈ 0.625 µM) | 16 (≈ 20 µM) | ≦0.015 μg/mL |
| CC[C@H]1OC(=O)[C@H](C)C(=O)[C@H](C)[C@@H](O[C@@H]2O[C@H](C)C[C@H](N(C)C)[C@H]2O)[C@](C)(OC(=O)NC/C=C/c2ccc3nccnc3c2)C[C@@H](C)C(=O)[C@H](C)[C@H]2NC(=O)O[C@@]21C [Compound 41] |  |  |  |  |  | 1 (≈ 1.23 µM) | 0.12 (≈ 0.148 µM) | 0.25 (≈ 0.309 µM) | 16 (≈ 19.8 µM) | 0.03 µg/mL (≈ 0.037 µM) |
| CC[C@H]1OC(=O)[C@H](C)C(=O)[C@H](C)[C@@H](O[C@@H]2O[C@H](C)C[C@H](N(C)C)[C@H]2O)[C@](C)(OC(=O)NC/C=C/C=C/c2cccc(-n3cncn3)n2)C[C@@H](C)C(=O)[C@H](C)[C@H]2NC(=O)O[C@@]21C [Compound 50] |  |  |  |  |  | 2 (≈ 2.35 µM) | 0.06 (≈ 0.0704 µM) | 0.25 (≈ 0.293 µM) | 16 (≈ 18.8 µM) | ≦0.015 μg/mL |
| CC[C@H]1OC(=O)[C@H](C)C(=O)[C@H](C)[C@@H](O[C@@H]2O[C@H](C)C[C@H](N(C)C)[C@H]2O)[C@](C)(OC(=O)NC/C=C/c2cccc(-n3cncn3)n2)C[C@@H](C)C(=O)[C@H](C)[C@H]2NC(=O)O[C@@]21C [Compound 51] |  |  |  |  |  | 8 (≈ 9.69 µM) | 0.12 (≈ 0.145 µM) | 0.5 (≈ 0.605 µM) | >16 | 0.06 µg/mL (≈ 0.0726 µM) |
